# Results published in patent US8003348B2, “Method for the mass expression of an antimicrobial peptide by co-expression of a basic antimicrobial peptide and an acidic peptide using a translational coupling system” (Korea Advanced Institute of Science and Technology, priority 2007, dated 2011).
# Experiment: antimicrobial activity of the recombinant antimicrobial peptide
# Type: cell-based
# Details: recombinant histonin II purified from E. coli BL21(DE3)/pmIF3H, compared with naturally-occurring antimicrobial peptide
sequence,measurement,value
RAGLQFPVGRLLRRLLRRLLR (histonin II peptide) [recombinant antimicrobial peptide],antimicrobial activity,substantially the same antimicrobial activity as a naturally-occurring antimicrobial peptide
